Laboratory results reported in patent publication US20120156715A1, “Environmental Sentinel Biomonitor System (ESB)” (priority 2010, published 2012).
Read-outs that look alike come from different tables or passages of the source.

Experiments:
RTgill-W1 cells [1] = type: cell-based, rainbow trout, Oncorhynchus mykiss
RTgill-W1 cells [2] = experiment: Long-term storage testing of RTgill-W1 fluidic biochips with PCP exposure (ECIS); type: cell-based, rainbow trout, Oncorhynchus mykiss; settings: 9.4 μM
Method: The following description provides an example of a method for long-term testing of RTgill-W1 fluidic biochips according to an embodiment of the invention. In order to study the effects of cold storage with no media replenishment on the viability and sensitivity of the RTgill-W1 cells, fluidic biochips are seeded, held at 20° C., and media changes are performed on days 4 and 7 as described above, then held at 6° C. with no media replenishment for up to one year. Three chips are removed for viability assessment and ECIS testing using the 9.4 μM detection level for PCP (FIG. 1) at 4, 8, 12, 16, 20, 24, 32, 38, and 52 weeks and the chemical exposure procedure described above.
The following description provides an example of a method for statistical analysis according to an embodiment of the invention. A curve discrimination program using MATLAB (available from The MathWorks, Inc., Natick, Mass.) is used to perform the statistical analysis. […] This program analyzes impedance data from control and toxicant-exposed cells every minute during a 60 minute window. The overall difference between the two groups of curves is compared at each time point, and the difference between their averages is assessed relative to the within-group variability. A confidence level of […] (p<0.001) is used to establish statistical significance. Functional data analysis techniques are used to extend the standard single time point analysis of variance approach to a curve consisting of approximately 60 points. The lowest toxicant concentrations that cause a significant change in impedance in at least ten consecutive time intervals over a 60 minute period are reported as the detection levels in FIG. 1.
Unfed RTgill-W1 cells are maintained at 6° C. for different durations and subsequently tested with PCP exposures at 9.4 μM. […] The line with triangle data points and the line with square data points show, respectively, 1-hour and 4-hour average of response difference between the control and treatment channels at each respective storage time for 3 replicate fluidic biochips. Significance at each time point (p<0.001) is depicted by an * and requires a positive detection for all 3 replicate chips using the curve discrimination program. […] If the impedance patterns shown for the 12° C. and 20° C. chips are predictive indicators of the impedance patterns of the 6° C. chips, the 6° C. chips may remain viable for approximately 18 months, but most likely not beyond 2 years of storage.

[3] = one hour exposure, MEG = Military Exposure Guideline, HLC = Human Lethal Concentration, ECIS impedance

## O=C([O-])CF.[Na+] [fluoroacetate, sodium fluoroacetate]
RTgill-W1 cells [1]
  chips in which the chemical is detected: 3 out of 3
  concentration at which the chemical is detected, relative to MEG and HLC: above the HLC

## C[n+]1ccc(-c2cc[n+](C)cc2)cc1 [paraquat, paraquat dichloride]
RTgill-W1 cells [1]; at levels above the HLC
  chips in which the chemical is detected: 3 out of 3
RTgill-W1 cells [1]; [3]
  concentration at which the chemical is detected, relative to MEG and HLC: above the HLC

## O=S(=O)([O-])[O-].[Cu+2] [copper, copper sulfate]
RTgill-W1 cells [1]
  change in impedance compared to controls: increased impedance
  concentration at which the chemical is detected, relative to MEG and HLC: between the MEG and the HLC

## sodium arsenite [arsenic]
RTgill-W1 cells [1]
  change in impedance compared to controls: significant decrease
  concentration at which the chemical is detected, relative to MEG and HLC: between the MEG and the HLC

## Cc1ccccc1 [toluene]
RTgill-W1 cells [1]
  change in impedance compared to controls: significant decrease
  concentration at which the chemical is detected, relative to MEG and HLC: between the MEG and the HLC

## [N-]=[N+]=[N-] [azide]
RTgill-W1 cells [1]
  change in impedance compared to controls: significant decrease
  concentration at which the chemical is detected, relative to MEG and HLC: between the MEG and the HLC

## O=S(=O)([O-])[O-].[Tl+].[Tl+] [thallium, thallium sulfate]
RTgill-W1 cells [1]; at levels above the HLC
  chips in which the chemical is detected: 3 out of 3
RTgill-W1 cells [1]; [3]
  concentration at which the chemical is detected, relative to MEG and HLC: above the HLC

## CN1CCCC1c1cccnc1 (stereo not drawn) [nicotine]
RTgill-W1 cells [1]
  chips in which the chemical is detected: 3 out of 3
  concentration at which the chemical is detected, relative to MEG and HLC: above the HLC

## Cl.N [ammonia, ammonium chloride]
RTgill-W1 cells [1]; one hour exposure, p<0.001
  change in impedance compared to controls: significant decrease

## mercuric chloride [mercury]
RTgill-W1 cells [1]
  change in impedance compared to controls: significant decrease
  concentration at which the chemical is detected, relative to MEG and HLC: between the MEG and the HLC

## Oc1c(Cl)c(Cl)c(Cl)c(Cl)c1Cl [pentachlorophenate, sodium pentachlorophenate]
RTgill-W1 cells [1]; lowest concentration causing significant impedance change in at least ten consecutive time intervals over 60 minutes
  detection level: 9.4 µM
RTgill-W1 cells [1]; [3]
  concentration at which the chemical is detected, relative to MEG and HLC: between the MEG and the HLC
RTgill-W1 cells [1]; one hour exposure, p<0.001
  change in impedance compared to controls: significant decrease
RTgill-W1 cells [2]; 1 hour and 4 hour exposures, one year storage at 6° C.
  responsiveness after one year storage: significantly responsive
RTgill-W1 cells [2]; chips stored at 6° C. unfed, all storage time points indicated
  response to PCP exposure: positive response
RTgill-W1 cells [2]; storage at 6° C., additional at 140 and 266 days, p<0.001, 3 replicate chips
  significance of response, 4 hours exposure: significant responses
RTgill-W1 cells [2]; storage at 6° C., time points of 14-114 days and 364 days, p<0.001, 3 replicate chips
  significance of response, 1 hour exposure: significant

## COP(=S)(OC)Oc1ccc([N+](=O)[O-])cc1 [methyl parathion]
RTgill-W1 cells [1]
  change in impedance compared to controls: significant decrease
  concentration at which the chemical is detected, relative to MEG and HLC: between the MEG and the HLC

## Oc1ccccc1 [phenol]
RTgill-W1 cells [1]
  chips in which the chemical is detected: 3 out of 3
  concentration at which the chemical is detected, relative to MEG and HLC: above the HLC

## C=CC#N [Acrylonitrile, acrylonitrile]
RTgill-W1 cells [1]; at levels above the HLC
  chips in which the chemical is detected: 3 out of 3
RTgill-W1 cells [1]; [3]
  concentration at which the chemical is detected, relative to MEG and HLC: above the HLC

## CNC(=O)O/N=C/C(C)(C)SC [aldicarb]
RTgill-W1 cells [1]; at levels above the HLC
  chips in which the chemical is detected: 3 out of 3
RTgill-W1 cells [1]; [3]
  concentration at which the chemical is detected, relative to MEG and HLC: above the HLC

## COP(N)(=O)SC (stereo not drawn) [methamidophos]
RTgill-W1 cells [1]; at levels above the HLC
  chips in which the chemical is detected: 3 out of 3
RTgill-W1 cells [1]; [3]
  concentration at which the chemical is detected, relative to MEG and HLC: above the HLC
